According to US20090246152A1, “NARACTIN COMPOSITIONS FOR THE INHIBITION OF REACTIVE OXYGEN SPECIES” (Nu Skin International, Inc., priority 2008, published 2009):

How the values were obtained:
arNOX [1] = assay: arNOX inhibition, superoxide-dependent reduction of ferric cytochrome c with serum or buffy coats (Table 1); assay type: biochemical; conditions: 25 μg/ml
Protocol: Superoxide Production By Buffy Coats: Buffy coats, a mixture of lymphocytes and platelets. Such buffy coats are commercially available from, for example, Rockland ImmunoChemicals (Gilbertsville, Pa.). The blood samples were maintained at 4° C. prior to collection and assay. Ca. 10^7 cells were added to each assay. Cell numbers were determined using a hemocytometer.
Reduction of ferric cytochrome c by superoxide was employed as a standard measure of superoxide formation (Mayo, L. A. and Cumutte, J. (1990) Meth. Enzyme. 186, 567-575. 7. Butler, J, Koppenol, W. H. and Margollash, E. (1982) J. Biol. Chem. 257, 10747). This is a widely accepted method when coupled to superoxide dismutase inhibition for the measurement of superoxide generation. The assay consists of 150 μl serum or 40 μl buffy coats in PBSG buffer (8.06 g NaCl, 0.2 g KCl, 0.18 g Na2HPO4, 0.26 g KH2PO4, 0.13 g CaCl2, 0.1 g MgCl2 1.35 g glucose dissolved in 1000 ml deionized water, adjusted to pH 7.4, filtered and stored at 4° C.) Rates were determined using an SLM Aminco DW-2000 spectrophotometer (Milton Roy, Rochester, N.Y., USA) in the dual wave length mode of operation with continuous measurements over 1 min every 1.5 min. After 45 min, test compounds were added and the reaction was continued for 45 min. After 45 min. a millimolar extinction coefficient of […] was used for reduced ferricytochrome c. Extracts were made of the compounds in water unless otherwise indicated.

arNOX [2] = assay: arNOX activity of saliva (person), ferricytochrome c reduction; assay type: biochemical, human; conditions: for inhibition of arNOX activity of saliva: 1 mg/ml, saliva from person; for augmentation of low activity N. tazetta powder: FIGS. 1a and 1b; for arNOX inhibition (result in words): substance or extract alone
Protocol: Of the mixture, 60 μl was added to at total of three ml of assay mixture containing saliva as the arNOX activity source.
The assay consists of 150 μl serum or 40 μl buffy coats in PBSG buffer (8.06 g NaCl, 0.2 g KCl, 0.18 g Na2HPO4, 0.26 g KH2PO4, 0.13 g CaCl2, 0.1 g MgCl2 1.35 g glucose dissolved in 1000 ml deionized water, adjusted to pH 7.4, filtered and stored at 4° C.) Rates were determined using an SLM Aminco DW-2000 spectrophotometer (Milton Roy, Rochester, N.Y., USA) in the dual wave length mode of operation with continuous measurements over 1 min every 1.5 min. After 45 min, test compounds were added and the reaction was continued for 45 min. After 45 min. a millimolar extinction coefficient of 19.1 cm^−1 was used for reduced ferricytochrome c. Extracts were made of the compounds in water unless otherwise indicated.

SMILES | ArNOX ACTIVITY % OF NO ADDITION (arNOX [1]; Ethanol) [%] | inhibition of arNOX activity of saliva (arNOX [2]) | augmentation of low activity N. tazetta powder (arNOX [2]) | arNOX inhibition (result in words) (arNOX [2]) | further results
CC1=C(/C=C/C(C)=C/C=C/C(C)=C/C=C/C=C(C)/C=C/C=C(C)/C=C/C2=C(C)C(=O)[C@@H](O)CC2(C)C)C(C)(C)C[C@H](O)C1=O [Natural astaxanthin, astaxanthin] | 62 | – | – | – | –
O=C(NO)c1ccccc1O [SHAM, salicyl hydroxamate] | – | greater than 90% | notably decreased arNOX activity | – | arNOX activity after addition to N. tazetta powder extract (arNOX [2]; saliva of person, FIG. 1a): nearly complete inhibition; concentration at which inhibition of arNOX activity is largely complete (arNOX [2]; saliva, FIG. 7): 11 mg/mL
O=C(O)c1ccccc1O [Salicylic acid, salicylic acid] | – | about 50% | – | found to inhibit arNOX activity | –
CC(=O)Oc1ccccc1C(=O)O [aspirin, reference compound] | – | – | – | did not inhibit arNOX activity | –
OCc1ccccc1O[C@@H]1O[C@H](CO)[C@@H](O)[C@H](O)[C@H]1O [salicin] | – | – | notably decreased arNOX activity | active as a single agent | augmentation of arNOX inhibition of mixtures of Schizandra chinensis powder and N. tazetta powder/extract (arNOX [2]; 1 mg/ml salicin, FIGS. 10a, 10b): active in augmenting the arNOX inhibition; active concentration relative to SHAM (Naractin 1) or salicylic acid (Naractin 2) (arNOX [2]; FIG. 9): active at a ten-fold lower concentration; concentration at which maximum inhibition of arNOX activity is achieved (arNOX [2]; saliva, FIG. 9): 1 mg/mL
CC1=C(/C=C/C(C)=C/C=C/C(C)=C/C=C/C=C(C)/C=C/C=C(C)/C=C/C2=C(C)CCCC2(C)C)C(C)(C)CCC1 [β-Carotene] | 68 | – | – | – | ArNOX ACTIVITY % OF NO ADDITION (arNOX [1]; Water): 28%
